Target: T1, Der p1 allergen (Dermatophagoides pteronyssinus, UniProt P08176)
T1 construct: House dust was passed through a number of sieves and the fraction smaller than 53 μm was collected; from tissue; host or cells: house dust (sieved fraction smaller than 53 μm)
Test: Der p1 allergen reduction in house dust after vapour exposure in a booth (ELISA)
Details: 0.8 ml β-pinene on 6 ml water vaporised by oil burner, house dust on PTFE tray, vs pre-treatment control
From the text: When using house dust for allergen denaturing tests an inherent difficulty is the variability of the amount of allergen in each small sample, even when taken from the same dust reservoir. The amount of dust in the pre-treatment sample must be accurately estimated in order to determine the extent of any allergen denaturing. In these tests the dust sample was applied to the test exposure surface and then one half of this surface dust was removed to measure the control pre-treatment allergen level of that specific sample. Each control was directly relevant to each sample, which gave the best possible estimate of the level of allergen in the sample before exposure to possible denaturant. All tests employed a glass reinforced plastic booth of size 0.7 m×0.7 m×1.0 m. All tests had 5 or 6 replicates. Average values are stated.
The following Examples all measure the reduction of the house dust mite Dermatophagoides pteronyssinus allergen—Der p1.
House dust was passed through a number of sieves and the fraction smaller than 53 μm was collected. 0.025 g of dust was placed in a small sieve to distribute it evenly over the test surface. The test surface was a PTFE (polytetrafluoroethylene—trade mark TEFLON) coated metal tray of size 30 cm×30 cm. The dust was applied to the tray by moving the sieve continuously over the surface while tapping the sieve. One half of the dust was then removed by suction onto an in-line filter and the weight recorded, this was the pre-treatment control. The tray was then placed in the booth. An oil burner containing 0.8 ml of β-pinene floated on 6ml of distilled water was placed in the booth, and the booth was sealed. The oil burner candle was lit and allowed to burn, under the oil/water until all the liquid had been vaporised (approximately 30 minutes). The candle was then smothered. After 24 hours the tray was removed, the dust was collected from it and its weight recorded. The booth was washed with strong detergent between tests.
The test samples were assayed for the Der p1 allergen using an ELISA (enzyme linked immunosorbent assay) to determine the allergen content. This was then related to the weight of dust that had been present in each sample. All of the samples were multiplied up to compare the amount of allergen expected to be present in a 0.1 g sample of dust. The percentage difference between the control sample and the exposed sample was then obtained. One analysis was carried out on week 0 (24 hours after the tests were completed. Another analysis was carried out after 2 weeks.
Corresponding tests were carried out and the same ELISA analysis carried out at Week 0 and after 4 weeks.

T1 sequence (P08176 99-320): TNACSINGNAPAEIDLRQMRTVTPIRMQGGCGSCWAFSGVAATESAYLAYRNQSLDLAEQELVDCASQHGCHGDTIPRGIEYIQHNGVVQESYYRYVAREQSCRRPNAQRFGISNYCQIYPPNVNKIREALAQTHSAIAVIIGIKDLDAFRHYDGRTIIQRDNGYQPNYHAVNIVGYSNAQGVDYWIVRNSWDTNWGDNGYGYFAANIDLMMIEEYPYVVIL

SMILES: C=C1CCC2CC1C2(C)C (stereo not drawn) [β-pinene]
- Der p1 allergen reduction (corresponding (second) test series, Week 0): Week 0-77.5%
- Der p1 allergen reduction (corresponding (second) test series, Week 4 (analysis after 4 weeks)): Week 4-91.6%
- Der p1 allergen reduction (first test series, Week 0 (24 hours after the tests were completed)): Week 0-68.0%
- Der p1 allergen reduction (first test series, Week 2 (analysis after 2 weeks)): Week 2-66.3%

Source: patent US20090076172A1, “Prolonged Deactivation” (priority 2004, published 2009)
